Laboratory results taken from paper PMC6234229, “The role of loops B and C in determining the potentiation of GABAA receptors by midazolam” (Pharmacology Research & Perspectives, 2018).

What was measured:
Experiment in all cases: Midazolam potentiation of EC10 GABA currents, whole-cell patch clamp, HEK293T
Type in all cases: cell-based
[1] = target: T1, α4(I204S)β2γ2 GABAA receptor (Homo sapiens, UniProt P18507+P47870+P48169, I239S)
T1 construct: expressed in transfected cells; host or cells: HEK293T
Excerpt: (§1) Human (Homo sapiens) GABAA subunits (α1‐6, β2, γ2s) were subcloned into pcDNA3.1+ vectors with a cytomegalovirus (CMV) promoter. The hβ2 and hα3 sequences were humanized rat (Rattus norvegicus) cDNA with amino acid substitutions made to match the human protein sequence. The α1‐3, α5, β2, and γ2s subunits were a generous gift from Neil L. Harrison (Columbia University Medical Center, NY). The α4 subunit was obtained from GenScript (Piscataway, NJ), and the α6 subunit was a generous gift from Robert L. McDonald (Vanderbilt University, TN). All point mutations (listed in Figure 1C) were introduced using the QuikChange Lightening site‐directed mutagenesis kit (Agilent Technologies, Santa Clara, CA) according to the manufacturer's instructions and were confirmed by sequencing (Eurofins MWG Operon, Louisville, KY).
(§2) Human embryonic kidney cells containing the SV40 T‐antigen (HEK293T) were acquired from American Type Culture Collection (ATCC®, Manassas, VA), catalogue number, CRL3216. HEK293T cells were maintained at 37°C and 5% CO2 in Eagle Minimum Essential Medium (MEM) supplemented with 5% fetal bovine serum (Atlanta Biologicals Inc., Flowery Branch, GA), 40 μM L‐glutamine, 100 U/mL penicillin and 0.1 mM streptomycin. Cells were passaged regularly when they reached 70% confluency using trypsin. Cells were not passaged more than 22 times. New cells were revived from frozen stocks at passage 2‐4. Cells used for in vitro electrophysiology experiments were grown on poly‐D‐lysine‐coated glass coverslips (No.2, VWR, Radnor, PA) and transfected with X‐tremeGENE (Roche Diagnostics, Indianapolis, IN) with the desired receptor subunit cDNAs at a 1:1:1 ratio to express αxβ2γ2s receptors (2 μg total cDNA) and with 0.5 μg green fluorescent protein (GFP) as an expression marker. The γ2s incorporation into receptors was tested with zinc inhibition assays regularly.24 Patch clamp experiments were performed on cells at 24‐72 hours post‐transfection. All experiments were performed at 22°C. Experiments consisted of at least five cells recorded per day from at least two transfections across 3‐4 days to control for cell health and transfection efficiency. At least three cells expressing wild‐type receptors were recorded on days that mutant receptors were tested to provide a time‐matched expression control. All reagents were purchased from Sigma‐Aldrich (St. Louis, MO) unless otherwise stated.
(§3) Extracellular solution contained 161 mM NaCl, 3 mM KCl, 1 mM MgCl2, 1.5 mM CaCl2, 10 mM HEPES, and 6 mM D‐glucose, adjusted to pH 7.4 with NaOH (320‐330 mOsm). […] The perfusion system was controlled by protocols written in pClamp 9 (Molecular Devices, LLC., Sunnyvale, CA). Whole‐cell currents were recorded at ‐60 mV, filtered at 100 Hz and sampled at 200 Hz with a MultiClamp 700B amplifier (Molecular Devices, LLC) and DigiData 1322A (Molecular Devices, LLC) digitizer. […] Cells were recorded with the midazolam protocol no more than two times to avoid desensitization and incomplete washout or irreversible modulation.
(§4) Recordings were analyzed using MATLAB (Math Works, Inc., Natick, MA). […] The maximum peak current, EC50 and Hill coefficient were estimated for assays from each cell. When Hill parameters are estimated from whole‐cell recordings, the changes in the parameters across receptor conditions can be ascribed to the following changes in receptor physiology. Changes in maximum current can be due to changes in the single‐channel conductance or the rate of desensitization. Changes in cell surface receptor expression can cause minor changes in maximum current, but are unlikely to occur in the time course of our experimental protocol. […] More often minor changes in the Hill coefficient are attributed to the altered homogeneity in the receptor population expressed by the HEK293T cell. For example, a shallower Hill coefficient could be caused by a shift in the population of receptors from mostly αβγ receptors to a combination of both αβ and αβγ receptors.

[2] = target: T2, α3(H126R)β2γ2 GABAA receptor (Homo sapiens, UniProt P18507+P34903+P47870, H154R)
T2 construct: expressed in transfected cells; host or cells: HEK293T
Excerpt: as §1, §2, §3, §4

[3] = target: T3, α2β2γ2 GABAA receptor (Homo sapiens, UniProt P18507+P47869+P47870)
T3 construct: expressed in transfected cells; host or cells: HEK293T
Excerpt: as §1, §2, §3, §4

[4] = target: T4, α2(H101R)β2γ2 GABAA receptor (Homo sapiens, UniProt P18507+P47869+P47870, H129R); conditions: for Midazolam potentiation (%): α2(H101R)
T4 construct: expressed in transfected cells; host or cells: HEK293T
Excerpt: as §1, §2, §3, §4

[5] = target: T5, α1(T163P)β2γ2 GABAA receptor (Homo sapiens, UniProt P14867+P18507+P47870, T190P)
T5 construct: expressed in transfected cells; host or cells: HEK293T
Excerpt: as §1, §2, §3, §4

[6] = target: T6, α5(S209I)β2γ2 GABAA receptor (Homo sapiens, UniProt P18507+P31644+P47870, S240I)
T6 construct: expressed in transfected cells; host or cells: HEK293T
Excerpt: as §1, §2, §3, §4

[7] = target: T7, α3(S230I)β2γ2 GABAA receptor (Homo sapiens, UniProt P18507+P34903+P47870, S258I)
T7 construct: expressed in transfected cells; host or cells: HEK293T
Excerpt: as §1, §2, §3, §4

T3 sequence (P47869 29-451): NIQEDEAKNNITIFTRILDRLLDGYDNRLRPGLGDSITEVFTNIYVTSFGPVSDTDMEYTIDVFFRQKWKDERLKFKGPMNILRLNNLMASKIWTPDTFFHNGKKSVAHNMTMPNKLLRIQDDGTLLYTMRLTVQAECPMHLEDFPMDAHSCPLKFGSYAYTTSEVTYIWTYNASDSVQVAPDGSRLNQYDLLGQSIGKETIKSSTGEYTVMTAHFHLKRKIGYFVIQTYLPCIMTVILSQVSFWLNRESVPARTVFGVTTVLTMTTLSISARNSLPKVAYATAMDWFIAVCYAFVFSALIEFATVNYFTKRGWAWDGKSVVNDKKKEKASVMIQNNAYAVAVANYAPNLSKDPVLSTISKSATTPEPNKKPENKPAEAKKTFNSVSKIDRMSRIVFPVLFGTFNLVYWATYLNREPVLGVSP
T3 sequence (P47870 25-512 limits assumed): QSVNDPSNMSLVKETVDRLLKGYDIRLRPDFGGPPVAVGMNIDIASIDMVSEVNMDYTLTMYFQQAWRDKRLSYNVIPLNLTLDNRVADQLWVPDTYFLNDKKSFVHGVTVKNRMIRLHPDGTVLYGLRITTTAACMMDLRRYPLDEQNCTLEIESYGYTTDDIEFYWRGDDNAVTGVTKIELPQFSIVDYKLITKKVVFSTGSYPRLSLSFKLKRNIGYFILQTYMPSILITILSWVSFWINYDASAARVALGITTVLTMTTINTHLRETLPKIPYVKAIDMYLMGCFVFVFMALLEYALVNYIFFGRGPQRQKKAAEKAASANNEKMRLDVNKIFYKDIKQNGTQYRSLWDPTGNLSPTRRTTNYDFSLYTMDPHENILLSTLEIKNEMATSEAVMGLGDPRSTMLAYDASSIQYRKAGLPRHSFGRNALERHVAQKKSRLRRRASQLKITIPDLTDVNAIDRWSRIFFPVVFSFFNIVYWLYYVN
T3 sequence (P18507 40-467 isoform P18507-1 limits assumed): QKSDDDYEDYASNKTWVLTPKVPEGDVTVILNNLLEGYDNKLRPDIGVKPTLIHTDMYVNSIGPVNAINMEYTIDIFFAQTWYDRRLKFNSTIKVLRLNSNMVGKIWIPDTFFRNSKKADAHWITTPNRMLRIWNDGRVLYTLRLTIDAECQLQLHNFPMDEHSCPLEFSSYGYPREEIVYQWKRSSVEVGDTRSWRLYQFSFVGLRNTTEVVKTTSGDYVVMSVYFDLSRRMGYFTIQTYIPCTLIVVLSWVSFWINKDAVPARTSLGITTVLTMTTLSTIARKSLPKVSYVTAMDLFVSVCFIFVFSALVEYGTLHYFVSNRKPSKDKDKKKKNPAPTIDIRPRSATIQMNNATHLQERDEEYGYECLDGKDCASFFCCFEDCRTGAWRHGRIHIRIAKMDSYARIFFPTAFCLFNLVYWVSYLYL
T7 sequence (P34903 29-492 S258I): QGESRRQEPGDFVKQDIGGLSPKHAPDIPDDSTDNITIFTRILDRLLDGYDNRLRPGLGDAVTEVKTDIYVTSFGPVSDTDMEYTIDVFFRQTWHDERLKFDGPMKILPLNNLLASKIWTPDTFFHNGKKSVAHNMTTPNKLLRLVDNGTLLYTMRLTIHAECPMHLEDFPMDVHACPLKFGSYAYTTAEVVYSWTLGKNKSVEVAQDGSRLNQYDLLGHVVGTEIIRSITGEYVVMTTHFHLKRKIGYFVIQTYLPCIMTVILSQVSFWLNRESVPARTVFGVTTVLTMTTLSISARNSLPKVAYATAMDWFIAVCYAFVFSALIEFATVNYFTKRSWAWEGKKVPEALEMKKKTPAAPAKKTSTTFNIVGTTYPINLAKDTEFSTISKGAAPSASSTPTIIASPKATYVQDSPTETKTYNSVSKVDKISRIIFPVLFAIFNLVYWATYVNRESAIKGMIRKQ
T7 sequence (P47870 25-512 limits assumed): as the sequence (P47870 25-512 limits assumed) above
T7 sequence (P18507 40-467 isoform P18507-1 limits assumed, stated change not applied): as the sequence (P18507 40-467 isoform P18507-1 limits assumed) above
T1 sequence (P48169 36-554 I239S): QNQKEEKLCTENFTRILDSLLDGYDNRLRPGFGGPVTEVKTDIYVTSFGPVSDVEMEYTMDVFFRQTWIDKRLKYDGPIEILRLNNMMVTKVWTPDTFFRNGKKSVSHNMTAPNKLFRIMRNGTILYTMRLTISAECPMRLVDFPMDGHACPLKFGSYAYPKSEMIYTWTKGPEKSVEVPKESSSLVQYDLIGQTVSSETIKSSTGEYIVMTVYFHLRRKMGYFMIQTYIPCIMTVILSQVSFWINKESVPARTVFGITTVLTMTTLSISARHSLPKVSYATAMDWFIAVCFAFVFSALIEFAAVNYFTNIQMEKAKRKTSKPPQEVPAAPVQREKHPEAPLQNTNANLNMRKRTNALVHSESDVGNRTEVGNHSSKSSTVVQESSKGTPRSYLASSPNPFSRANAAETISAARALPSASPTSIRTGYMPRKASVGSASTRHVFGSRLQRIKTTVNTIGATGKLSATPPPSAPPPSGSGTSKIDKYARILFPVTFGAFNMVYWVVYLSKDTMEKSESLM
T1 sequence (P47870 26-474 isoform P47870-1 limits assumed, stated change not applied): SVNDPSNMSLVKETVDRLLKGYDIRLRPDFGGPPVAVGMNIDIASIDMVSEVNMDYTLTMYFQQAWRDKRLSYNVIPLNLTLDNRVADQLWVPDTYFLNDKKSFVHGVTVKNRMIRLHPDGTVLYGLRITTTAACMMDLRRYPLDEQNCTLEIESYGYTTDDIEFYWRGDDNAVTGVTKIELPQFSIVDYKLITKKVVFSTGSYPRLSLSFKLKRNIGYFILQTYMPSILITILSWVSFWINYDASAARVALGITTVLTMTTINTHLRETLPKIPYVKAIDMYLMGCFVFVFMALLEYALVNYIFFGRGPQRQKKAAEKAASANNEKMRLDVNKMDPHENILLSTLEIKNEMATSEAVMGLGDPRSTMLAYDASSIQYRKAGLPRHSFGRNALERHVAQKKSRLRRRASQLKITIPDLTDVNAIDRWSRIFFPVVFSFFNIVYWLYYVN
T1 sequence (P18507 40-467 isoform P18507-1 limits assumed, stated change not applied): as the sequence (P18507 40-467 isoform P18507-1 limits assumed) above
T5 sequence (P14867 28-456 T190P): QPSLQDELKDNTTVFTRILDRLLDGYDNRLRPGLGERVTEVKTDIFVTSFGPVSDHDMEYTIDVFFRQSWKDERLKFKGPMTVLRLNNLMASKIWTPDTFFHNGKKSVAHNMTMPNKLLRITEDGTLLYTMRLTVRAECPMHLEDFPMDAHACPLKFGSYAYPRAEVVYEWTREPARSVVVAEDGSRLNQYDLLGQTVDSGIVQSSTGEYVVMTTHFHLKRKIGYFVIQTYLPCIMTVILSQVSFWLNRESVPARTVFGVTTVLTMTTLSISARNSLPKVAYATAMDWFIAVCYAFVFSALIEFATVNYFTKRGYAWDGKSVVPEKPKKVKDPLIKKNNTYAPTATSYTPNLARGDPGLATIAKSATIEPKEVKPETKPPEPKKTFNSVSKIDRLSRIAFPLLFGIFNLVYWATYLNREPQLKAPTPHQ
T5 sequence (P47870 25-512 limits assumed): as the sequence (P47870 25-512 limits assumed) above
T5 sequence (P18507 40-467 isoform P18507-1 limits assumed, stated change not applied): as the sequence (P18507 40-467 isoform P18507-1 limits assumed) above
T4 sequence (P47869 29-451 H129R): as the sequence (P47869 29-451) above, with H101R counted along it
T4 sequence (P47870 25-512 limits assumed): as the sequence (P47870 25-512 limits assumed) above
T4 sequence (P18507 40-467 isoform P18507-1 limits assumed, stated change not applied): as the sequence (P18507 40-467 isoform P18507-1 limits assumed) above
T6 sequence (P31644 32-462 S240I): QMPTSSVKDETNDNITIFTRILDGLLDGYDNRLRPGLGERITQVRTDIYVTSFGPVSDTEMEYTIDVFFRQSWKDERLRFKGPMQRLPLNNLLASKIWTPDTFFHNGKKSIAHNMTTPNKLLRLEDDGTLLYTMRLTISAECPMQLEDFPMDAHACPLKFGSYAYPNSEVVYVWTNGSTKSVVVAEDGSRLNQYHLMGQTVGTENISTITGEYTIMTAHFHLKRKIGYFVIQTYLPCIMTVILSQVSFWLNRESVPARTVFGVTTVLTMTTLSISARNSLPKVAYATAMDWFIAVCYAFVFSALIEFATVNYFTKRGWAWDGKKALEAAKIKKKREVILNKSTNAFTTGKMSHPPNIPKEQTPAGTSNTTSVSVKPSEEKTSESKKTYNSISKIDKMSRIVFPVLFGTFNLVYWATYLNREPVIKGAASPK
T6 sequence (P47870 26-474 isoform P47870-1 limits assumed, stated change not applied): as the sequence (P47870 26-474 isoform P47870-1 limits assumed, stated change not applied) above
T6 sequence (P18507 40-467 isoform P18507-1 limits assumed, stated change not applied): as the sequence (P18507 40-467 isoform P18507-1 limits assumed) above
T2 sequence (P34903 29-492 H154R): as the sequence (P34903 29-492 S258I) above, with H126R, I230S counted along it
T2 sequence (P47870 25-512 limits assumed): as the sequence (P47870 25-512 limits assumed) above
T2 sequence (P18507 40-467 isoform P18507-1 limits assumed, stated change not applied): as the sequence (P18507 40-467 isoform P18507-1 limits assumed) above

Cc1ncc2n1-c1ccc(Cl)cc1C(c1ccccc1F)=NC2 [midazolam]
responsiveness to midazolam potentiation [1]: failed to convey any notable midazolam potentiation
Midazolam potentiation (%) ([1]; 10 nM MDZ + EC10 GABA): 9.47 ± 1.93%
Midazolam potentiation (%) ([1]; 50 nM MDZ + EC10 GABA): 13.23 ± 1.68%
Midazolam potentiation (%) ([1]; 100 nM MDZ + EC10 GABA): 16.59 ± 1.59%
Midazolam potentiation (%) ([1]; 500 nM MDZ + EC10 GABA): 20.16 ± 2.01%
Midazolam potentiation (%) ([1]; 1000 nM MDZ + EC10 GABA): 23.95 ± 2.33%
responsiveness to midazolam potentiation [2]: abolished the ability of receptors to respond to midazolam potentiation
Midazolam potentiation (%) ([2]; 10 nM MDZ + EC10 GABA): 3.71 ± 1.31%
Midazolam potentiation (%) ([2]; 50 nM MDZ + EC10 GABA): 3.63 ± 2.06%
Midazolam potentiation (%) ([2]; 100 nM MDZ + EC10 GABA): 8.25 ± 1.64%
Midazolam potentiation (%) ([2]; 500 nM MDZ + EC10 GABA): 7.92 ± 2.84%
Midazolam potentiation (%) ([2]; 1000 nM MDZ + EC10 GABA): 10.78 ± 2.42%
EC50 [3]: 50.9 ± 5.05 nM
Midazolam potentiation (%) ([3]; 10 nM MDZ + EC10 GABA, α2β2γ2): 19.47 ± 4.19%
Midazolam potentiation (%) ([3]; 50 nM MDZ + EC10 GABA, α2β2γ2): 69.08 ± 17.73%
Midazolam potentiation (%) ([3]; 100 nM MDZ + EC10 GABA, α2β2γ2): 128.98 ± 36.14%
Midazolam potentiation (%) ([3]; 500 nM MDZ + EC10 GABA, α2β2γ2): 167.38 ± 49.89%
Midazolam potentiation (%) ([3]; 1000 nM MDZ + EC10 GABA, α2β2γ2): 165.35 ± 48.98%
Max potentiation (%) ([3]; α2β2γ2, Hill fit, midazolam 10-1000 nM + EC10 GABA): 169.6 ± 49.9%
Hill coefficient ([3]; α2β2γ2, midazolam Hill fit): 1.743 ± 0.133
Midazolam potentiation (%) ([4]; 10 nM MDZ + EC10 GABA): 9.85 ± 5.77%
Midazolam potentiation (%) ([4]; 50 nM MDZ + EC10 GABA): 21.72 ± 8.75%
Midazolam potentiation (%) ([4]; 100 nM MDZ + EC10 GABA): 25.17 ± 9.58%
Midazolam potentiation (%) ([4]; 500 nM MDZ + EC10 GABA): 30.08 ± 10.31%
Midazolam potentiation (%) ([4]; 1000 nM MDZ + EC10 GABA): 31.81 ± 11.79%
responsiveness to midazolam potentiation ([4]; printed α2(H102R)): abolished the ability of receptors to respond to midazolam potentiation
EC50 [5]: 61.1 ± 3.72 nM
Midazolam potentiation (%) ([5]; 10 nM MDZ + EC10 GABA, α1(T163P)): 14.19 ± 4.15%
Midazolam potentiation (%) ([5]; 50 nM MDZ + EC10 GABA, α1(T163P)): 49.96 ± 8.44%
Midazolam potentiation (%) ([5]; 100 nM MDZ + EC10 GABA, α1(T163P)): 96.68 ± 15.00%
Midazolam potentiation (%) ([5]; 500 nM MDZ + EC10 GABA, α1(T163P)): 124.27 ± 18.98%
Midazolam potentiation (%) ([5]; 1000 nM MDZ + EC10 GABA, α1(T163P)): 123.00 ± 18.99%
Max potentiation (%) ([5]; α1(T163P), Hill fit, midazolam 10-1000 nM + EC10 GABA): 127.7 ± 16.0 %
Hill coefficient ([5]; α1(T163P), midazolam Hill fit): 2.113 ± 0.154
EC50 [6]: 65.4 ± 2.76 nM
Midazolam potentiation (%) ([6]; 10 nM MDZ + EC10 GABA, α5(S209I)): 15.95 ± 6.58%
Midazolam potentiation (%) ([6]; 50 nM MDZ + EC10 GABA, α5(S209I)): 62.43 ± 11.51%
Midazolam potentiation (%) ([6]; 100 nM MDZ + EC10 GABA, α5(S209I)): 127.16 ± 19.87%
Midazolam potentiation (%) ([6]; 500 nM MDZ + EC10 GABA, α5(S209I)): 168.94 ± 23.17%
Midazolam potentiation (%) ([6]; 1000 nM MDZ + EC10 GABA, α5(S209I)): 170.92 ± 25.92%
increase of maximum midazolam potentiation relative to wildtype ([6]; α5(S209I) vs α5β2γ2): approximately 63%
Max potentiation (%) ([6]; α5(S209I), Hill fit, midazolam 10-1000 nM + EC10 GABA): 175.1 ± 26.6%
Hill coefficient ([6]; α5(S209I), midazolam Hill fit): 2.232 ± 0.334
Midazolam potentiation (%) ([7]; 10 nM MDZ + EC10 GABA, α3(S230I)): 37.59 ± 4.12%
Midazolam potentiation (%) ([7]; 50 nM MDZ + EC10 GABA, α3(S230I)): 139.86 ± 12.63%
Midazolam potentiation (%) ([7]; 100 nM MDZ + EC10 GABA, α3(S230I)): 280.95 ± 24.73%
Midazolam potentiation (%) ([7]; 500 nM MDZ + EC10 GABA, α3(S230I)): 413.27 ±37.70%
Midazolam potentiation (%) ([7]; 1000 nM MDZ + EC10 GABA, α3(S230I)): 428.92 ± 38.09%
EC50 ([7]; EC50 (nM), α3(S230I), midazolam potentiation of EC10 GABA): 73.6 nM
enhancement of maximum midazolam potentiation relative to wildtype ([7]; α3(S230I) vs α3β2γ2): approximately 63%
Max potentiation (%) ([7]; α3(S230I), Hill fit, midazolam 10-1000 nM + EC10 GABA): 436.0 ± 39.4%
Hill coefficient ([7]; α3(S230I), midazolam Hill fit): 1.655 ± 0.061
